# Assay results taken from patent US4950602A, “Inhibition of lactate production by pyruvate adducts” (Cornell Research Foundation, Inc., priority 1987, dated 1990).
# “Also recorded” adds a separate entry of the source.
# Legend:
# isocitrate dehydrogenase = biological target: T1, isocitrate dehydrogenase (Rattus norvegicus, UniProt Q99NA5); assay: Rat brain isocitrate dehydrogenase with RAP; assay type: biochemical; conditions: 20 μM RAP
# T1 construct: following enzymes in rat brain subcellular fractions: α-ketoglutarate, isocitrate; from tissue; host or cells: rat brain subcellular fractions
# T1 sequence (Q99NA5 28-366): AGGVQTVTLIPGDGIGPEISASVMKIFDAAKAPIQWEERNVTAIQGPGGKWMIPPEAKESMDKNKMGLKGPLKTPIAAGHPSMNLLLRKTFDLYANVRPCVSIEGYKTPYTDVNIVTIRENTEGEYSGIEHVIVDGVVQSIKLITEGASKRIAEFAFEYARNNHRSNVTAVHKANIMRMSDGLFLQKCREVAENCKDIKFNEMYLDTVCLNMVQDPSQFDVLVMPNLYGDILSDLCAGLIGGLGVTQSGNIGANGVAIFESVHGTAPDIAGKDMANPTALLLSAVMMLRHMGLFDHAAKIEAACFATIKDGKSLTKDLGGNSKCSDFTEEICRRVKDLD
# T1 sequence (Q68FX0 35-385 partner): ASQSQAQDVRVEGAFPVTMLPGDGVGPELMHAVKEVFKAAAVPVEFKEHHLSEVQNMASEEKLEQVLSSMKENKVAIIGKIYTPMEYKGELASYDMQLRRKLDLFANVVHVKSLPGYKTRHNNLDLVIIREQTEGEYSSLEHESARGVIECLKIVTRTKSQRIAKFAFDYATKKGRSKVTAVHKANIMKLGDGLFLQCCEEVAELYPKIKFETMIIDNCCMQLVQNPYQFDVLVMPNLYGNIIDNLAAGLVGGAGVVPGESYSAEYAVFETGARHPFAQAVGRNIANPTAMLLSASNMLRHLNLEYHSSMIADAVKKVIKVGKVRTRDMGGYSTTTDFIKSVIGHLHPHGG
# T1 sequence (P41565 40-393 partner): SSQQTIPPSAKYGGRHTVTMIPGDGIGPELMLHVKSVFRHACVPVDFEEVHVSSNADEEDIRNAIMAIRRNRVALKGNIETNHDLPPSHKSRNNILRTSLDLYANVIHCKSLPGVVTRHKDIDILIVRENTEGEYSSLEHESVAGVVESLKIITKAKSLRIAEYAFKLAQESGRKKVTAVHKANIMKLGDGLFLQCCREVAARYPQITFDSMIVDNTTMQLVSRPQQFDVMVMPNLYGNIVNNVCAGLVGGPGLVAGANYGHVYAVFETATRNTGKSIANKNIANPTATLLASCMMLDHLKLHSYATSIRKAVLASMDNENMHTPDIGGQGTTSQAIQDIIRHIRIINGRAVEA
# Procedure: (§1) Each of the enzymes was assayed by procedures in which change of absorbance at 340 nm due to NADH was followed essentially as described by Bergmeyer (1974, Methods of Enzymatic Analysis, 2nd Eng. Ed., Verlag Chemie Weinheim Academic Press, N.Y.) with the following exceptions. Phosphofructokinase was assayed according to the method of Lai et al (1984, J. Neurochem., 42:438-446). NAD^+ -linked isocitrate dehydrogenase was assayed as described by Lai and Clark (1976, Biochem. J., 154:423-432). Pyruvate and α-ketoglutarate dehydrogenase complexes were respectively assayed according to the methods of Lai and Sheu (1985, J. Neurochem., 45:1861-1868) and Lai and Cooper (1986) (J. Neurochem, 47:1376-1386).
# lactate dehydrogenase = assay: Determination of inactive E.RAP enzyme complex; assay type: biochemical, rat; conditions: 2 μM initial concentration
# hexokinase = biological target: T2, hexokinase (Rattus norvegicus, UniProt P05708); assay: Rat brain hexokinase with RAP; assay type: biochemical; conditions: 20 μM RAP
# T2 construct: following enzymes in rat brain subcellular fractions: α-ketoglutarate, isocitrate and cytosolic malate dehydrogenases, and hexokinase; from tissue; host or cells: rat brain subcellular fractions
# T2 sequence (P05708 whole entry): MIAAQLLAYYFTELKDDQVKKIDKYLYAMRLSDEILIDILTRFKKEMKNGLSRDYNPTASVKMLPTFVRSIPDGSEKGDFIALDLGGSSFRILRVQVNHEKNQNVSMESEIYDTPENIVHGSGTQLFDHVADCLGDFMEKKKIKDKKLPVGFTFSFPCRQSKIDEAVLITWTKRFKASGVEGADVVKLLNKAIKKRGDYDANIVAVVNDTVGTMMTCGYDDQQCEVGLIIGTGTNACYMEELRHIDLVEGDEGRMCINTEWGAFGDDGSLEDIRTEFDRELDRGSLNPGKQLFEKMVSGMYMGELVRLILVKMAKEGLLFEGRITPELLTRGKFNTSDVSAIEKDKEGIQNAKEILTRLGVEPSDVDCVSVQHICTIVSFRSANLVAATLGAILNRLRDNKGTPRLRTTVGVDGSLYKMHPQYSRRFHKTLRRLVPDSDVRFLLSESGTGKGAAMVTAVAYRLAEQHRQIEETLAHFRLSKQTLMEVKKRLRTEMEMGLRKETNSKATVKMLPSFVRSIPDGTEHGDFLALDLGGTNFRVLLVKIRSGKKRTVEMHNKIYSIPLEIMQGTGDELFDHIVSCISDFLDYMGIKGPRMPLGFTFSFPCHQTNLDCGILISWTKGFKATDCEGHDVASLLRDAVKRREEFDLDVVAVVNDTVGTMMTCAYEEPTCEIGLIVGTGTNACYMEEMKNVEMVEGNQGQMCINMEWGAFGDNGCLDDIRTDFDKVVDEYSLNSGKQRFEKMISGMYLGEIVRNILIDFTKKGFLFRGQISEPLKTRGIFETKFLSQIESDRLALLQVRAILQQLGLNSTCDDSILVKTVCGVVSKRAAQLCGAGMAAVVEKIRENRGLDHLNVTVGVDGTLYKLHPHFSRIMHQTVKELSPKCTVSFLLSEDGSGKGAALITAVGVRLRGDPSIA
# Procedure: as §1
# [1] = biological target: T3, glyceraldehyde-3-phosphate dehydrogenase (Rattus norvegicus, UniProt P04797); assay: Rat brain glyceraldehyde-3-phosphate dehydrogenase with RAP; assay type: biochemical; conditions: 20 μM RAP
# T3 construct: from tissue; host or cells: rat brain
# Procedure: as §1
# [2] = biological target: T4, α-ketoglutarate dehydrogenase (Rattus norvegicus, UniProt Q5XI78+Q6P6R2); assay: Rat brain α-ketoglutarate dehydrogenase with RAP; assay type: biochemical; conditions: 20 μM RAP
# T4 construct: following enzymes in rat brain subcellular fractions: α-ketoglutarate; from tissue; host or cells: rat brain subcellular fractions
# T4 sequence (Q5XI78 41-1023): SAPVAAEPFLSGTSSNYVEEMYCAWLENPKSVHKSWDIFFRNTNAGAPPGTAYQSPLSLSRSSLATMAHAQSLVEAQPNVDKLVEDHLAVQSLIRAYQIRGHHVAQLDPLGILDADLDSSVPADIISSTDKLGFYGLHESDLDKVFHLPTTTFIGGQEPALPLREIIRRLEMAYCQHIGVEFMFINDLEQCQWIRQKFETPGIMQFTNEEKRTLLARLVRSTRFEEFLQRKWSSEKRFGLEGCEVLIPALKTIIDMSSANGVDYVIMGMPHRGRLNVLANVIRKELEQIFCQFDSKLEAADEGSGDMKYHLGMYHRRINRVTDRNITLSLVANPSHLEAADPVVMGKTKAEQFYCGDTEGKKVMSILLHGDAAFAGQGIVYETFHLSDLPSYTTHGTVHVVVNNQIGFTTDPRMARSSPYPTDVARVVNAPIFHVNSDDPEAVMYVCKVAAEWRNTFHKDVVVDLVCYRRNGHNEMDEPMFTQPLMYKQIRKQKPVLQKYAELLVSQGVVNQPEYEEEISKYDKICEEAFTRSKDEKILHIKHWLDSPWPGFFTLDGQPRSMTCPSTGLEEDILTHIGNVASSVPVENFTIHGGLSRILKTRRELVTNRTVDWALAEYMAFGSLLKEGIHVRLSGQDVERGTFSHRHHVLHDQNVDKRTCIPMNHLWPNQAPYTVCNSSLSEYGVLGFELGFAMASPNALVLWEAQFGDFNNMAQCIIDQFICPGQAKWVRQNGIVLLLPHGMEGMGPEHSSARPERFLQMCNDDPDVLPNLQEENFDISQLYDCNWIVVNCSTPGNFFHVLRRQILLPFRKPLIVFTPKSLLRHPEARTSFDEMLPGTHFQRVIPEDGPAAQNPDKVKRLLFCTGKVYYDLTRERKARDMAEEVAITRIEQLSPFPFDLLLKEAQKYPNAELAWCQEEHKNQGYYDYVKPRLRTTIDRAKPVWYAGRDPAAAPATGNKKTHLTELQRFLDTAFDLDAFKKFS
# T4 sequence (Q01205 69-454 partner): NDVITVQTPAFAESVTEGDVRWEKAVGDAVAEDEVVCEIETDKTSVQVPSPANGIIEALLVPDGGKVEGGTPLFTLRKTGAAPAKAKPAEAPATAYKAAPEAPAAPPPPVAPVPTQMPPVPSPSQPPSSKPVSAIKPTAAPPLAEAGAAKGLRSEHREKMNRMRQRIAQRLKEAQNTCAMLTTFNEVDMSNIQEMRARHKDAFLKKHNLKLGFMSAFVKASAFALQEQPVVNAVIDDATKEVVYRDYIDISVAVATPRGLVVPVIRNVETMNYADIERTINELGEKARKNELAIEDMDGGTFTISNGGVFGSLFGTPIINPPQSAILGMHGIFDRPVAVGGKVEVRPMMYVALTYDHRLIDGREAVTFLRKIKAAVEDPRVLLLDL
# T4 sequence (Q6P6R2 36-509): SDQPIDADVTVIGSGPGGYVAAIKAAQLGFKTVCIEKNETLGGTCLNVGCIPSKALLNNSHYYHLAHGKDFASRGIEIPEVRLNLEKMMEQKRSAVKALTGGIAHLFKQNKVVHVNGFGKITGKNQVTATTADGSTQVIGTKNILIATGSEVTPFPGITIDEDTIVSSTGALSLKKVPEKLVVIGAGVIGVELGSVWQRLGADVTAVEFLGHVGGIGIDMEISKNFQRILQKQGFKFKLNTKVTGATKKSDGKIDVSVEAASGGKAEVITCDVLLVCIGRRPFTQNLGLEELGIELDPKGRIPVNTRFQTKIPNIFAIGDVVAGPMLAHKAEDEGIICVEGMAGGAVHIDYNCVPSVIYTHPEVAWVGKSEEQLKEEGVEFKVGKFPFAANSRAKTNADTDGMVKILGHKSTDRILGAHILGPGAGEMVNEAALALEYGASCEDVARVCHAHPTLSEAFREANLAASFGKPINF
# Procedure: as §1
# pyruvate dehydrogenase = biological target: T5, pyruvate dehydrogenase (Rattus norvegicus, UniProt P26284+P49432+Q6P6R2); assay: Rat brain pyruvate dehydrogenase with RAP; assay type: biochemical; conditions: 20 μM RAP
# T5 construct: from tissue; host or cells: rat brain
# Procedure: as §1
# [3] = biological target: T6, bovine heart pyruvate dehydrogenase complex (Bos taurus, UniProt A7MB35+F1N206+P11966); assay: Purified bovine heart pyruvate dehydrogenase complex with RAP; assay type: biochemical; conditions: 20 μM RAP
# T6 construct: overall NADH-forming activity assayed at 340 nm
# Text: (§2) Enzymes and enzyme assays. Rabbit muscle glyceraldehyde-3-phosphate dehydrogenase (80 U/mg: ammonium sulfate suspension), rabbit muscle glycerol-3-phosphate dehydrogenase (40 U/mg; ammonium sulfate suspension),beef liver glutamate dehydrogenase (120 U/mg: in 50% glycerol), mitochondrial pig heart malate dehydrogenase (1100 U/mg; in 50% glycerol) and yeast hexokinase (140 U/mg; ammonium sulfate suspension) were purchased from Boehringer Mannheim Corp. (Indianapolis). Beef heart lactate dehydrogenase (280 U/mg) was purchased from Worthington Biochemical Corporation (Freehold, N.J.). Porcine heart L-alanine aminotransferase (130 U/mg), rabbit muscle phosphofructokinase (140 U/mg; ammonium sulfate suspension), bovine heart α-ketoglutarate (8 U/mg) and pyruvate (5 U/mg) dehydrogenase complexes, sodium pyruvate, L-methionine-SR-sulfoximine, DL-vinylglycine, NAD^+, NADH and NAD^+ analogues (3-acetylpyridine, thionicotinamide, and 3-pyridinealdehyde adenine dinucleotides) were purchased from Sigma Chemical Company (St. Louis, Mo.).
# (§3) Each of the enzymes was assayed by procedures in which change of absorbance at 340 nm due to NADH was followed essentially as described by Bergmeyer (1974, Methods of Enzymatic Analysis, 2nd Eng. Ed., Verlag Chemie Weinheim Academic Press, N.Y.) with the following exceptions. […]
# [4] = biological target: T7, mitochondrial pig heart malate dehydrogenase (Sus scrofa, UniProt P00346); assay: Commercial mitochondrial malate dehydrogenase with RAP; assay type: biochemical; conditions: 20 μM RAP
# T7 construct: purchased Boehringer Mannheim Corp. (Indianapolis); host or cells: pig heart
# T7 sequence (P00346 25-338): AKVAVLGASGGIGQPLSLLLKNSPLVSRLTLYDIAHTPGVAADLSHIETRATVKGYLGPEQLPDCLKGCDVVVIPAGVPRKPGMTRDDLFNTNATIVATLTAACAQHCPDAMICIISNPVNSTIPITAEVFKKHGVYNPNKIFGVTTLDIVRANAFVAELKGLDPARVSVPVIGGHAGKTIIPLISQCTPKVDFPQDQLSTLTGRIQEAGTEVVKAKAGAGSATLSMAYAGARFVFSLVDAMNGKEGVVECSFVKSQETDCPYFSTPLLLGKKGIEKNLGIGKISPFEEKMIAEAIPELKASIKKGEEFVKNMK
# Text: as §2, §3
# [5] = biological target: rat brain lactate dehydrogenase; assay: Inhibition of rat brain lactate dehydrogenase (rat brain homogenate); assay type: biochemical; conditions: in the presence of either 0.2 or 2 mM pyruvate and 0.1 mM NADH
# [6] = biological target: T8, bovine heart α-ketoglutarate dehydrogenase complex (Bos taurus, UniProt F1N206); assay: Purified bovine heart α-ketoglutarate dehydrogenase complex with RAP; assay type: biochemical; conditions: 20 μM RAP
# T8 construct: purchased Sigma Chemical Company (St. Louis, Mo.); host or cells: bovine heart
# T8 sequence (F1N206 36-509, one chain of several): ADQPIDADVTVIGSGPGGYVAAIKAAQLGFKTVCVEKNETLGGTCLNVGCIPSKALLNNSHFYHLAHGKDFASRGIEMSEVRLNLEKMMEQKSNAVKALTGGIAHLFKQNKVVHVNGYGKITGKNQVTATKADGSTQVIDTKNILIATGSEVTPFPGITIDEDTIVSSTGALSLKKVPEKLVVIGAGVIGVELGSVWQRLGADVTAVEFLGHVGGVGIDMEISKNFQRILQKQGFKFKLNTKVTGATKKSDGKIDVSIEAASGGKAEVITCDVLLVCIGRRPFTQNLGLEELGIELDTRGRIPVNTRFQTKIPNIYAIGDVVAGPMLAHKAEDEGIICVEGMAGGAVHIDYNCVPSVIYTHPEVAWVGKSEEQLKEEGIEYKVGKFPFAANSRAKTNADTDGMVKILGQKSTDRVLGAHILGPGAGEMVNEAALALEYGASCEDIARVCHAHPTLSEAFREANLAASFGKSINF
# Text: as §2, §3
# [7] = Stability of pyruvate adducts in solution and on storage; assay type: physicochemical; conditions: neutral ph solution; neutral pH values; read-out: t1/2 of reversion to free pyruvate
# Procedure: The procedure used was a modification of that of Everse et al (1971, supra) for the synthesis of the NAD-pyruvate adduct Sodium pyruvate (15 mg) and NAD^+ (or NAD^+ analogue) (100 mg) were dissolved in deaerated water. The pH was brought to 11.0 with concentrated NaOH. After standing at room temperature for one hour, the solution was applied to the top of a column of Whatman DE-52 (2×3 cm), washed with deaerated distilled water. The column was eluted with 30 ml of 25 mM ammonium bicarbonate at 4° C. Unreacted pyruvate, NAD^+ and NAD^+ analogues were eluted in this fraction. The highly-colored (yellow-orange) adducts were eluted with 5-6 ml of 25 mM ammonium bicarbonate containing 4% NaCl. The fraction was split into approximately 1 ml portions, flushed with nitrogen, and stored at -70° C. […] Nevertheless, under the slightly alkaline conditions of storage and low temperature, these adducts remained stable for at least 3 months as judged by their continued potency toward inhibition of lactate dehydrogenase and maintenance of absorbance at 340 nm. […] The presence of a reactive carbonyl function was monitored as follows: 0.2-0.3 μ mole of the adduct was added to 50 μl of 0.1% 2,4-dinitrophenylhdrazine in 2 M HCl. […] The absorbance at 430 nm was compared to equivalent amounts of pyruvate and NAD^+ analogue taken through the same procedure. […]
# [8] = biological target: T9, mitochondrial malate dehydrogenase (Rattus norvegicus, UniProt P04636); assay: Rat brain mitochondrial malate dehydrogenase with RAP; assay type: biochemical; conditions: 20 μM RAP
# T9 construct: Commercial and rat brain glutamate dehydrogenases and mitochondrial malate dehydrogenases were only slightly; from tissue; host or cells: rat brain
# T9 sequence (P04636 25-338): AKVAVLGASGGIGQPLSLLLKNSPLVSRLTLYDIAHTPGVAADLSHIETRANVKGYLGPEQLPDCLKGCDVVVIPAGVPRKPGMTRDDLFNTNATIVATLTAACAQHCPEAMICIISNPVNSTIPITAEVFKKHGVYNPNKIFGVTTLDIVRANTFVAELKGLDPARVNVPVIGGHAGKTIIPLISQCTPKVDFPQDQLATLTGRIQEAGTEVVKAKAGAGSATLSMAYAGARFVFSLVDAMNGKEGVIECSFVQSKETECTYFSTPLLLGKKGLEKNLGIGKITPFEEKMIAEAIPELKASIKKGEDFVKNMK
# Procedure: as §1
# [9] = biological target: T10, beef liver glutamate dehydrogenase (Bos taurus, UniProt P00366); assay: Commercial glutamate dehydrogenase with RAP; assay type: biochemical; conditions: 20 μM RAP
# T10 construct: purchased Boehringer Mannheim Corp. (Indianapolis); host or cells: beef liver
# Text: as §2, §3
structure (smiles),measurement,setting,value
"Nc1ncnc2c1ncn2[C@@H]1O[C@H](COP(=O)(O)OP(=O)(O)OC[C@H]2O[C@@H](N3C=CC(CC(=O)C(=O)O)C(C=O)=C3)[C@H](O)[C@@H]2O)[C@@H](O)[C@H]1O (some centres unmarked) [RAP, 3(-4-(reduced 3-pyridinealdehyde-adeninedinucleotide))-pyruvate]",effect on rat brain isocitrate dehydrogenase,isocitrate dehydrogenase,little or no effect; also recorded: did not inhibit
same,enzyme tied up as the inactive E.RAP complex,lactate dehydrogenase,approximately 90%
same,effect on rat brain hexokinase,hexokinase,similarly unaffected; also recorded: did not inhibit
same,effect on rat brain glyceraldehyde-3-phosphate dehydrogenase,[1],little or no effect
same,effect on rat brain α-ketoglutarate dehydrogenase,[2],little or no effect; also recorded: did not inhibit
same,effect on rat brain pyruvate dehydrogenase,pyruvate dehydrogenase,little or no effect
same,effect on purified bovine heart pyruvate dehydrogenase complex,[3],nor did 20 μM RAP inhibit
same,inhibition at 20 µM,[4],≤ 20%
same,IC50,[5],~100 nM
same,effect on purified bovine heart α-ketoglutarate dehydrogenase complex,[6],nor did 20 μM RAP inhibit
same,half-life,[7],90 min
same,effect on rat brain mitochondrial malate dehydrogenase,[8],little or no effect
same,inhibition at 20 µM,[8],≤ 20%
same,inhibition at 20 µM,[9],≤ 20%
